# Legend:
# [1] = UV-Vis stability of Telox-2 in aqueous buffer; type: physicochemical; conditions: 200 μM, 0.01% DMSO in phosphate-buffered saline
# Protocol: Concentration of Telox-2=200 μM (0.01% DMSO in phosphate-buffered saline). The small spectrum identifies the unique absorptions of the tellurophene and nitroimidazole functionalities.
# An orthogonal stability assay using UV-Vis spectroscopy was performed to corroborate the NMR stability findings (FIG. 6). In this assay, UV-Vis spectra of Telox-2 were recorded at a fixed concentration in aqueous buffer over a period of 3 days. Loss of either heterocycle, tellurophene or nitroimidazole, as a result of degradation would be expected to cause a decrease in absorbance at 282 and/or 325 nm respectively.
# [2] = test system: NADPH:cytochrome P450 oxidoreductase (POR); type: cell-based; conditions: mutant HCT116, 10 μM, 3 hours
# Protocol: FIGS. 10A-C show a) the mass cytometry histograms of wild-type HCT116 cells incubated with 10 μM of the exemplary compound, Telox-2, for 3 hours in atmosphere containing either 21% O2, 1% O2, 0.2% O2, or <0.02% O2); b) the mass cytometry histograms of mutant HCT116 cells overexpressing POR incubated with 10 μM Telox-2 for 3 hours in atmosphere containing either 21% O2, 1% O2, 0.2% O2 or <0.02% O2; and c) the mass cytometry histograms of mutant HCT116 cells unable to express POR incubated with 10 μM Telox-2 for 3 hours in atmosphere containing either 21% O2, 1% O2, 0.2% O2, or <0.02% O2.
# To confirm the reductive metabolism of Telox-2 it investigated using mutant HCT116 cell lines that either overexpressed NADPH:cytochrome P450 oxidoreductase (POR) or had this enzyme knocked out (FIG. 10 part b).
# Jurkat cells = assay: Metabolic toxicity assay (WST-1) in Jurkat cells; type: cell-based; conditions: Jurkat cells, 24 hour incubation, WST-1
# Protocol: FIGS. 7A, B and C show a) and b) the cell proliferation rate of HCT116 cells as a function of time in the presence of various concentrations of the exemplary compound, Telox-2 (confluency analysis); and c) the metabolic toxicity of the exemplary compound, Telox-2, in Jurkat cells as measured by reduction of WST-1. Cells were incubated with Telox-2 for 24 hours prior to a 30 minute exposure to WST-1.
# A 96 well clear fluorometer plate was loaded with 200 μL of Jurkat cells at a culture density of 1×10^6 cells per mL. To each well was added an appropriate amount of a stock solution of Telox/Telox2 in sterile DMSO to reach a desired concentration of Telox/Telox2 (1-1000 micromole). The concentration of DMSO was 1% in all wells. Cells were allowed to incubate for 24 h at 37° C. under normal atmosphere, after which 20 μL of a commercially available solution of WST-1 in PBS (Roche Diagnostics, product #05015944001) was added to each well (gentle pipetting evenly distributed the reagent throughout the well). Cells were allowed to incubate for a further 0.5 h at 37° C. under normal atmosphere, followed by subsequent measurement of the absorbance of each well at 450 nm using a TECAN Safire 2 plate reader. Data was background corrected vs. wells that contained cell growth media (without cells), an appropriate concentration of Telox2, a final concentration of DMSO=1%, and WST-1. Background correction wells were incubated in the same manner as described for cell-positive wells.
# To investigate the organotellurium compounds of study as potential probe moieties for MC, the metabolic toxicity of the compounds was evaluated. Organotellurium compounds are often described as toxic, with aryl telluroethers showing cellular toxicity below 100 μM across a range of cell lines under different assay conditions.^9-11,38,39 The toxicity of compounds 8-11 was investigated in a commonly used Jurkat cell line after a 24 hour incubation using the metabolic probe WST-1 (Roche Diagnostics, Laval, Quebec) as per manufacturer's instructions. As compounds 8, 9 and 10 are expected to show degradation over the time frame of the toxicity assay, based on the NMR stability studies, these experiments show the relative toxicity of the compounds and their resulting degradation products (Table 2). […] The LD50 values of the exemplary organotellurium compounds of the present application provide promise for their use as activity based MC probes since the general MC experiment can be achieved at concentrations of ˜100 μM.^5
smiles,measurement,setting,value
"O=[N+]([O-])c1nccn1CCc1ccc[te]1 [Telox-2, 2-nitro-1-(2-(tellurophen-2-yl)ethyl)-1H-imidazole]",change in absorbance at 282 and/or 325 nm over 3 days,[1],No change in absorbance
same,labelling in POR-knockout cell line compared to wild type,[2],nearly identical to that in the wild type
same,labelling in cell line overexpressing POR compared to wild type,[2],greatly enhanced labelling
same,LD50 (metabolic toxicity),Jurkat cells,~270 µM
